Laboratory results reported in paper PMC8910009, “Identification of Novel and Potent Indole-Based Benzenesulfonamides as Selective Human Carbonic Anhydrase II Inhibitors: Design, Synthesis, In Vitro, and In Silico Studies” (International Journal of Molecular Sciences, 2022).

Experiments:
hCA I = hCA I (Homo sapiens, UniProt P00915); assay: stopped flow CO2 hydrase assay, hCA I
Experimental: (§1) The tested CA panel was comprised of the two ubiquitously expressed cytosolic hCA I and II isoforms, along with the two tumor-related transmembrane hCA IX and XII isoforms. The activity of the synthesized hybrids was reported as Ki (inhibition constant) to assess their binding affinity. […] The inhibitor and enzyme solutions were first preincubated together for 15 min at room temperature to enable for the generation of the E–I complex. Photophysics stopped-flow instrument was used to measure the CA-catalyzed CO2 hydration activity. Phenol red (at a concentration of 0.2 mM) was added as an indicator after a period of 10–100 s in the CA-catalyzed CO2 hydration reaction at an absorbance maximum of 557 nm, with 20 mM Hepes (pH = 7.4) and 10 mM NaClO4 (to maintain constant ionic strength) [30]. […] In the initial 5–10% of the reaction, at least six traces were examined to determine the initial velocity for each inhibitor. Similarly, the total measured rates were used to measure the uncatalyzed rates [32]. Distilled–deionized water was used in the preparation of the Stock inhibitor solutions (10 mM), as well as dilutions up to 0.01 nM. The inhibition constants were measured utilizing PRISM 3, whereas the Lineweaver–Burk plots were used to measure the kinetic parameters which comprised the mean of at least three separate measurements [33, 34].

hCA II = hCA II (Homo sapiens, UniProt P00918); assay: stopped flow CO2 hydrase assay, hCA II
Experimental: as §1

hCA IX = hCA IX (Homo sapiens, UniProt Q16790); assay: stopped flow CO2 hydrase assay, hCA IX
Experimental: as §1

hCA XII = hCA XII (Homo sapiens, UniProt O43570); assay: stopped flow CO2 hydrase assay, hCA XII
Sequence of hCA XII (O43570 25-354): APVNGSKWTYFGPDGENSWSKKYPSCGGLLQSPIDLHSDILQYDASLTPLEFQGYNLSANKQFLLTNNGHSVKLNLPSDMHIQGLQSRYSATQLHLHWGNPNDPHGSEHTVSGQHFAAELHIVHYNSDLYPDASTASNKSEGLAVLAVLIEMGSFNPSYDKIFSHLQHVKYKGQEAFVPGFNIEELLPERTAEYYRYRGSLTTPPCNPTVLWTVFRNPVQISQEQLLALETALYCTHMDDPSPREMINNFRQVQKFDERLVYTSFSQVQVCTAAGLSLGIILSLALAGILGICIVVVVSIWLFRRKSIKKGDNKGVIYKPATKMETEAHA
Experimental: as §1

Sequence of hCA I (P00915 whole entry): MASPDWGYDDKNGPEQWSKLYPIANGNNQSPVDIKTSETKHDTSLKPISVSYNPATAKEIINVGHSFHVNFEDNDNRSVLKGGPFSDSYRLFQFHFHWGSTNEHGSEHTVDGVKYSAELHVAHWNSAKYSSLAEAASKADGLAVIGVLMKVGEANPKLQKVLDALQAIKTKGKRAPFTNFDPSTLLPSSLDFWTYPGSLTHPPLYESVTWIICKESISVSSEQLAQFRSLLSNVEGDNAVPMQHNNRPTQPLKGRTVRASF

Row | Ki (hCA I) [µM] | Ki (hCA II) [nM] | selectivity for hCA II over hCA I (hCA II; ratio of Ki values) [fold] | selectivity for hCA II over hCA IX (hCA II; ratio of Ki values) [fold] | selectivity for hCA II over hCA XII (hCA II; ratio of Ki values) [fold] | Ki (hCA IX) [nM] | Ki (hCA XII) [nM] | SMILES
1 | 0.0798 | 5.9 | 13 | 34 | 9 | 206 | 54.2 | NS(=O)(=O)c1cccc(NC(=O)CCc2c[nH]c3ccccc23)c1 [Compound 2a, 3-(1H-indol-3-yl)-N-(3-sulfamoylphenyl)propanamide]
2 | 2.8 | 7.3 |  |  |  | 286 | 85.1 | NS(=O)(=O)c1ccc(O)c(NC(=O)CCc2c[nH]c3ccccc23)c1 [Compound 2b, N-(2-hydroxy-5-sulfamoylphenyl)-3-(1H-indol-3-yl)propanamide]
3 | 0.0976 | 7.1 |  |  |  | 166 | 42.2 | NS(=O)(=O)c1ccc(NC(=O)CCc2c[nH]c3ccccc23)cc1 [Compound 2d, 3-(1H-indol-3-yl)-N-(4-sulfamoylphenyl)propanamide]
4 | 5.57 | 45.5 |  |  |  | 766 | 90.9 | NS(=O)(=O)c1cccc(NC(=O)c2ccc3[nH]ccc3c2)c1 [Compound 2e, N-(3-sulfamoylphenyl)-1H-indole-5-carboxamide]
5 | 7.45 | 71.9 |  |  |  | 635 | 89.4 | NS(=O)(=O)c1ccccc1NC(=O)c1ccc2[nH]ccc2c1 [Compound 2i, N-(2-sulfamoylphenyl)-1H-indole-5-carboxamide]
6 | 7.51 | 670 |  |  |  | 487 | 36.9 | NS(=O)(=O)c1ccccc1NC(=O)c1ccc2cc[nH]c2c1 [Compound 2n, N-(2-sulfamoylphenyl)-1H-indole-6-carboxamide]
7 | 4.77 | 680 |  |  |  | 280 | 85.3 | NS(=O)(=O)c1ccc(O)c(NC(=O)c2ccc3[nH]ccc3c2)c1 [Compound 2g, N-(2-hydroxy-5-sulfamoylphenyl)-1H-indole-5-carboxamide]
8 | 0.554 | 8.6 |  |  |  | 240 | 236 | NS(=O)(=O)c1ccc(CCNC(=O)c2ccc3[nH]ccc3c2)cc1 [Compound 2h, N-(4-sulfamoylphenethyl)-1H-indole-5-carboxamide]
9 | 4.28 | 682 |  |  |  | 423 | 73.7 | NS(=O)(=O)c1ccc(O)c(NC(=O)c2ccc3cc[nH]c3c2)c1 [Compound 2l, N-(2-hydroxy-5-sulfamoylphenyl)-1H-indole-6-carboxamide]
10 | 3.11 | 16 |  |  |  | 165 | 257 | NS(=O)(=O)c1ccc(NC(=O)c2ccc3[nH]ccc3c2)cc1 [Compound 2f, N-(4-sulfamoylphenyl)-1H-indole-5-carboxamide]
11 | 4.66 | 833 |  |  |  | 428 | 83.8 | NS(=O)(=O)c1ccc(NC(=O)c2ccc3cc[nH]c3c2)cc1 [Compound 2k, N-(4-sulfamoylphenyl)-1H-indole-6-carboxamide]
12 | 5.4 | 94.8 |  |  |  | 654 | 40.5 | NS(=O)(=O)c1cccc(NC(=O)c2ccc3cc[nH]c3c2)c1 [Compound 2j, N-(3-sulfamoylphenyl)-1H-indole-6-carboxamide]
13 | 0.253 | 38.8 |  |  |  | 278 | 85.1 | NS(=O)(=O)c1ccc(CCNC(=O)c2ccc3cc[nH]c3c2)cc1 [Compound 2m, N-(4-sulfamoylphenethyl)-1H-indole-6-carboxamide]
14 | 0.217 | 9 |  |  |  | 222 | 36.9 | NS(=O)(=O)c1ccc(CCNC(=O)CCc2c[nH]c3ccccc23)cc1 [Compound 2c, 3-(1H-indol-3-yl)-N-(4-sulfamoylphenethyl)propanamide]
15 | 0.0566 | 7.5 |  |  |  | 170 | 66.9 | NS(=O)(=O)c1ccc(C(=O)Nc2ccc3[nH]ccc3c2)cc1 [Compound 2o, N-(1H-indol-5-yl)-4-sulfamoylbenzamide]
